Test results: US20090105349A1, “ANDROGEN MODULATORS” (WARNER-LAMBERT COMPANY LLC, priority 2004, published 2009)
Numbering of substitutions follows the chain as printed. Like-named read-outs stand apart in the source and are kept apart here.

Tests used:
[1] = molecular target: T1, hAR (human androgen receptor) (Homo sapiens, UniProt P10275); test: Competitive hAR binding assay with 3H-DHT tracer
T1 construct: made in house; host or cells: baculovirus/Sf9 insect cells (crude extract)
T1 sequence (P10275 1-920): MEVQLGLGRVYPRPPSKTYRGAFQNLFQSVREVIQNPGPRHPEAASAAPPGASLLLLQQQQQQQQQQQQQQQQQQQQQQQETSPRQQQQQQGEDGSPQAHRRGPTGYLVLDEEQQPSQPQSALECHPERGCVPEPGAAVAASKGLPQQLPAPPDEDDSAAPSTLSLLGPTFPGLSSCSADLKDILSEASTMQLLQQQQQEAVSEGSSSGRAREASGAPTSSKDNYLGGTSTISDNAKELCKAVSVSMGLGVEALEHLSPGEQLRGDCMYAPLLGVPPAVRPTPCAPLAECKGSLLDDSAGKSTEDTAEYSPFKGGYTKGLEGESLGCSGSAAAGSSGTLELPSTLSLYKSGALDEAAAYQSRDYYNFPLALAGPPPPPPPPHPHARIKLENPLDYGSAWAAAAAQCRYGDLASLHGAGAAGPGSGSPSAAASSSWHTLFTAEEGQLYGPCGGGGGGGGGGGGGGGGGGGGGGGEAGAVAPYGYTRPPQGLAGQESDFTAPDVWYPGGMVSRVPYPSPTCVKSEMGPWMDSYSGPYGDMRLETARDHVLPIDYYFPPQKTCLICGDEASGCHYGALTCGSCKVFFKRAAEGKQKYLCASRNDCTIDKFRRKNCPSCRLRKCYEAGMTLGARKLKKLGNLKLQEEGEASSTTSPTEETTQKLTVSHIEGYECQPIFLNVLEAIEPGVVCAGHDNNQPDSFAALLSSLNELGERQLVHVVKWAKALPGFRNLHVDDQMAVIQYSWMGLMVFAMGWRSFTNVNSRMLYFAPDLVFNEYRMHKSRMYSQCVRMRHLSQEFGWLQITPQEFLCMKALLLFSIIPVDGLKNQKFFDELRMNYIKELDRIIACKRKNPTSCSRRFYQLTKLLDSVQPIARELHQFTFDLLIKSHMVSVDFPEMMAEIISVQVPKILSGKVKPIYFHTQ
Method: The description below describes how the assay was carried out.
Competitive binding analysis was performed on baculovirus/Sf9 generated hAR extracts in the presence or absence of different concentrations of test agent and a fixed concentration of ^3H-dihydrotestosterone (3H-DHT) as tracer. […] Subsequently, the binding reactions are washed three times to completely remove excess unbound ^3H-DHT. hAR bound ^3H-DHT levels are determined in the presence of compounds (i.e. competitive binding) and compared to levels bound when no competitor is present (i.e. maximum binding). Compound binding affinity to the hAR is expressed as the concentration of compound at which one half of the maximum binding is inhibited.

[2] = molecular target: T2, androgen receptor in MDA-MB453-MMTV clone 54-19 cells (Homo sapiens, UniProt P10275); test: AR antagonist cell assay (MMTV-luciferase reporter); assay type: cell-based
T2 sequence (P10275 1-920 Q868H): T1 sequence (P10275 1-920) with Q868H
Method: The compounds ability to antagonize the effects of androgen on the androgen receptor were determined in a whole cell assay as described immediately below.
This cell line is a stable transfected cell line with MDA-MB453 cell background (a human breast tumor cell line expressing androgen receptor). A MMTV minimal promoter containing ARE was first cloned in front of a firefly luciferase reporter gene. Then the cascade was cloned into transfection vector pUV120puro. […] Puromycin resistant stable cell line was selected.
Plating medium: DMEM (phenol red free), 10% charcoal treated HyClone serum, 1% L-glutamine
Assay medium: DMEM (phenol red free), 1% charcoal treated HyClone serum, 1% L-glutamine, and 1% penicillin/streptomycin
Assay procedure: • 1. Cells are maintained in culture medium, splitting cells when they reach 80-90% confluence • 2. To test compounds, 10,000 cells/well are plated to opaque 96 cell culture plate in 100 ul/well plating medium, culture for overnight at 37° C. in cell culture incubator • 3. […] Add 10 ul/well freshly prepared DHT (final concentration at […]) to each well, incubate at 37° C. for 17 hr (overnight) • 5.
The results are reported as the mean of multiple tests as described below (the numbers of tests are indicated in the footnote). N.D. denotes that the compound was not tested.

[3] = baculovirus/Sf9 hAR extract, 1 nM 3H-DHT, one hour at 4° C, mean of multiple tests, read-out: AR Binding IC50
[4] = MDA-MB453-MMTV clone 54-19, inhibition of DHT induced luciferase, 17 hr; mean of multiple tests; read-out: AR Cell IC50
[5] = read-out: AR Cell IC50; MDA-MB453-MMTV clone 54-19, inhibition of DHT induced luciferase, 17 hr; mean of multiple tests

| SMILES | IC50 [1, 3] | IC50 [2, 4] | IC50 [1] | IC50 [2, 5] |
| --- | --- | --- | --- | --- |
| CCCc1ccccc1Oc1ccc(C#N)cc1Cl [Example 17, 3-Chloro-4-(2-propyl-phenoxy)-benzonitrile] | 102 nM | 861 nM | – | – |
| COc1cccc(F)c1Oc1ccc(C#N)cc1Cl [Example 19, 3-Chloro-4-(2-fluoro-6-methoxy-phenoxy)-benzonitrile] | – | – | 28 nM | 52 nM |
| N#Cc1ccc(Oc2ccccc2C(F)(F)F)c(Cl)c1 [Example 20, 3-Chloro-4-(2-trifluoromethyl-phenoxy)-benzonitrile] | 253 nM | – | – | 51 nM |
| CCc1ccccc1Oc1ccc(C#N)cc1Cl [Example 23, 3-Chloro-(2-ethyl-phenoxy)-benzonitrile] | 227 nM | > 1000 nM | – | – |
| N#Cc1ccc(Oc2ccc(F)cc2F)c(Cl)c1 [Example 25, 3-Chloro-4-(2,4-difluoro-phenoxy)-benzonitrile] | 371 nM | 792 nM | – | – |
| COc1cccc(OC)c1Oc1ccc(C#N)cc1Cl [Example 26, 3-Chloro-4-(2,6-dimethoxy-phenoxy)-benzonitrile] | 106 nM | – | – | 54 nM |
| CCOc1cc(C)ccc1Oc1ccc(C#N)cc1Cl [Example 30, 3-Chloro-4-(2-ethoxy-4-methyl-phenoxy)-benzonitrile] | 42 nM | 869 nM | – | – |
| N#Cc1ccc(Oc2cccc3c2CCCC3)cc1Cl [Example 32, 2-Chloro-4-(5,6,7,8-tetrahydro-naphthalen-1-yloxy)-benzonitrile] | – | 473 nM | 94 nM | – |
| COc1ccc(C)cc1Oc1ccc(C#N)c(Cl)c1 [Example 33, 2-Chloro-4-(2-methoxy-5-methyl-phenoxy)-benzonitrile] | 232 nM | – | – | 42 nM |
| CCc1cccc(Oc2ccc(C#N)c(Cl)c2)c1 [Example 34, 2-Chloro-4-(3-ethyl-phenoxy)-benzonitrile] | 181 nM | 924 nM | – | – |
| CCc1ccccc1Oc1ccc(C#N)c(Cl)c1 [Example 35, 2-Chloro-4-(2-ethyl-phenoxy)-benzonitrile] | – | 360 nM | 20 nM | – |
| N#Cc1ccc(Oc2ccc(F)cc2F)cc1Cl [Example 36, 2-Chloro-4-(2,4-difluoro-phenoxy)-benzonitrile] | – | 144 nM | 52 nM | – |
| COc1cccc(Oc2ccc(C#N)c(Cl)c2)c1 [Example 37, 2-Chloro-4-(3-methoxy-phenoxy)-benzonitrile] | 114 nM | 139 nM | – | – |
| COc1cccc(OC)c1Oc1ccc(C#N)c(Cl)c1 [Example 38, 2-Chloro-4-(2,6-dimethoxy-phenoxy)-benzonitrile] | 249 nM | – | – | 19 nM |
| CC(C)c1ccccc1Oc1ccc(C#N)c(Cl)c1 [Example 39, 2-Chloro-4-(2-isopropyl-phenoxy)-benzonitrile] | – | 254 nM | 43 nM | – |
| N#Cc1ccc(Oc2cccc3ccccc23)cc1Cl [Example 40, 2-Chloro-4-(naphthalen-1-yloxy)-benzonitrile] | – | – | 31 nM | 90 nM |
| Cc1cccc(Oc2ccc(C#N)c(Cl)c2)c1 [Example 41, 2-Chloro-4-m-tolyloxy-benzonitrile] | – | 120 nM | 86 nM | – |
| COc1ccccc1Oc1ccc(C#N)c(Cl)c1 [Example 42, 2-Chloro-4-(2-methoxy-phenoxy)-benzonitrile] | – | 387 nM | 2 nM | – |
| C=CCc1cccc(C)c1Oc1ccc(C#N)c(Cl)c1 [Example 44, 4-(2-Allyl-6-methyl-phenoxy)-2-chloro-benzonitrile] | – | 282 nM | 79 nM | – |
| Cc1ccc(Oc2ccc(C#N)c(Cl)c2)c(C)c1 [Example 45, 2-Chloro-4-(2,4-dimethyl-phenoxy)-benzonitrile] | – | 721 nM | 25 nM | – |
| N#CCCc1ccc(Oc2ccc(C#N)c(Cl)c2)cc1 [Example 46, 2-Chloro-4-[4-(2-cyano-ethyl)-phenoxy]-benzonitrile] | 304 nM | 197 nM | – | – |
| COc1cc(C)ccc1Oc1ccc(C#N)c(Cl)c1 [Example 47, 2-Chloro-4-(2-methoxy-4-methyl-phenoxy)-benzonitrile] | – | > 1000 nM | 4 nM | – |
| CCC(C)c1ccccc1Oc1ccc(C#N)c(Cl)c1 (stereo not drawn) [Example 48, 4-(2-sec-Butyl-phenoxy)-2-chloro-benzonitrile] | 184 nM | > 1000 nM | – | – |
| Cc1ccc(C(C)C)c(Oc2ccc(C#N)c(Cl)c2)c1 [Example 49, 2-Chloro-4-(2-isopropyl-5-methyl-phenoxy)-benzonitrile] | – | 784 nM | 79 nM | – |
| Cc1cc(C)c(Oc2ccc(C#N)c(Cl)c2)c(C)c1 [Example 50, 2-Chloro-4-(2,4,6-trimethyl-phenoxy)-benzonitrile] | – | 214 nM | 22 nM | – |
| C=CCc1ccccc1Oc1ccc(C#N)c(Cl)c1 [Example 51, 4-(2-Allyl-phenoxy)-2-chloro-benzonitrile] | – | 252 nM | 62 nM | – |
| N#Cc1ccc(Oc2ccc(F)cc2)cc1Cl [Example 52, 2-Chloro-4-(4-fluoro-phenoxy)-benzonitrile] | 152 nM | 261 nM | – | – |
| Cc1ccc(C(C)C)cc1Oc1ccc(C#N)c(Cl)c1 [Example 53, 2-Chloro-4-(5-isopropyl-2-methyl-phenoxy)-benzonitrile] | 192 nM | 621 nM | – | – |
| COc1cccc(Oc2ccc(C#N)c(Cl)c2)c1OC [Example 54, 2-Chloro-4-(2,3-dimethoxy-phenoxy)-benzonitrile] | 157 nM | – | – | 26 nM |
| COc1cc(F)ccc1Oc1ccc(C#N)c(Cl)c1 [Example 56, 2-Chloro-4-(4-fluoro-2-methoxy-phenoxy)-benzonitrile] | – | – | 6 nM | 11 nM |
